Experimental findings from patent US12263171B2, “7-, 8-, and 10-substituted amino triazolo quinazoline derivatives as adenosine receptor antagonists, pharmaceutical compositions and their use” (Merck Sharp & Dohme LLC, priority 2018, dated 2025) are described below.

The target in experiment [1] is human A2b adenosine receptor (Homo sapiens (Human), UniProt P29275). The experiment can be described thus: A2B antagonism in cAMP cell-based assay (LANCE cAMP, HEK293 cells, 600 nM adenosine). As to conditions: for IC50: values marked *: cAMP cell-based assay; for *A2B cAMP % inh. @ 10000 nM: marked *. The method, then: Measurement of A2A and A2B Antagonism in cAMP Cell-Based Assay
Chain of human A2b adenosine receptor (P29275 whole entry): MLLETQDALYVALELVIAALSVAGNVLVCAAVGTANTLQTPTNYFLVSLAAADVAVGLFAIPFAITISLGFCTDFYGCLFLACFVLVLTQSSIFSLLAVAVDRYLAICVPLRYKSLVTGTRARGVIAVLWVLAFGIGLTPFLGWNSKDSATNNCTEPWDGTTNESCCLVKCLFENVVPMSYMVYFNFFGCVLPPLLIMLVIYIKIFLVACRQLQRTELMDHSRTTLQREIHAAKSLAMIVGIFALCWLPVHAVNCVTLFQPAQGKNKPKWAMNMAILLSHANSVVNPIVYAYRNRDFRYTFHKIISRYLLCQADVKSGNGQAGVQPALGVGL
All subsequent liquid additions were performed using a multichannel pipettor. […] After this time 5 μL of either 300 nM or 600 nM adenosine (Sigma Cat. No. A9251) for A2A and A2B respectively was added and incubated for 30 minutes at 37° C. and 5% CO2 in a humidified environment. At this time detection mix was prepared by combining the LANCE Eu-W8044 labeled streptavidin and. Biotin-cAMP in detection buffer according to the manufacturers protocol. […] Curve fitting of the percent effect data versus the log of compound concentration used a 4-parameter concentration response curve fitting algorithm to calculate IC50 values.
A general note: In TR-FRET formats the signal depends on donor and acceptor labels being close together.

Experiment [2] has as its target human A2a adenosine receptor (Homo sapiens (Human), UniProt P29274). The experiment can be described thus: A2a receptor affinity radioligand binding assay ([3H] SCH58261, membranes from HEK293 or CHO cells). As to conditions: unstarred values: radioligand binding. The method in brief:
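Displacement of tritiated SCH58261 (working dilution 4 nM) from recombinant human A2a receptor membranes (HEK293 or CHO), 60 min at room temperature in Tris pH 7.4/MgCl2 buffer after 15–30 min compound preincubation. Scintillation counting after filtration; normalized percent effect fitted 4-parameter logistic for IC50.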

Chain of human A2a adenosine receptor (P29274 whole entry): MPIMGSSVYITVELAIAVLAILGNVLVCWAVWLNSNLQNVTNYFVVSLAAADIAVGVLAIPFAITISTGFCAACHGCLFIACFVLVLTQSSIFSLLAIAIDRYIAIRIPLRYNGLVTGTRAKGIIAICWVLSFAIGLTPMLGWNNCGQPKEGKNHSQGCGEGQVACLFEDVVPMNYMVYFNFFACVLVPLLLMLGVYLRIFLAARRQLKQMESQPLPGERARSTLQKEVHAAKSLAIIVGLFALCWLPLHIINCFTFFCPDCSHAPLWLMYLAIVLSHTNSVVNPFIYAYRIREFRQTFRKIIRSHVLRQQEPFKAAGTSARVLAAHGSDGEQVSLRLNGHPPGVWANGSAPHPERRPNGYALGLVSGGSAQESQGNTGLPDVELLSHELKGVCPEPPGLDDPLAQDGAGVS

In general, IC50 refers to the midpoint of a concentration-inhibition curve. Low readings indicate higher potency, high ones lower potency. Consider `COc1ccc2c(c1)nc(N)n1nc([C@@H]3C[C@H](C)CN(c4cn([C@H](C)[C@@H](C)O)nc4C)C3)nc21` [Example 219B, (2R,3R)-3-(4-((3R,5S)-3-(5-amino-8-methoxy-[1,2,4]triazolo[1,5-c]quinazolin-2-yl)-5-methylpiperidin-1-yl)-3-methyl-1H-pyrazol-1-yl)butan-2-ol], for which the IC50 in experiment [1] was determined as 999 nM; in experiment [2], 0.2 nM.
As for `COc1ccc2c(c1)nc(N)n1nc([C@H]3C[C@H](C(F)(F)F)CN(c4cnn(CC(C)(C)O)c4)C3)nc21` (single isomer, unassigned) [Example 218A, 1-(4-((3S,5S or 3R,5R)-3-(5-amino-8-methoxy-[1,2,4]triazolo[1,5-c]quinazolin-2-yl)-5-(trifluoromethyl)piperidin-1-yl)-1H-pyrazol-1-yl)-2-methylpropan-2-ol], in experiment [1], the “*A2B cAMP % inh. @ 10000 nM” value is reported as 9% inh. @ 10000 nM*. Moreover, in experiment [2], the IC50 was 50.7 nM.
With `COc1cccc2c1nc(N)n1nc([C@@H]3CCCN(c4ccn(CC(C)(C)O)n4)C3)nc21` [Example 63, (R)-1-(3-(3-(5-amino-7-methoxy-[1,2,4]triazolo[1,5-c]quinazolin-2-yl)piperidin-1-yl)-1H-pyrazol-1-yl)-2-methylpropan-2-ol], the values for the IC50 in experiment [1] and in experiment [2] were 32.7 nM and 2 nM, respectively.
Take `COc1cccc2c1nc(N)n1nc([C@@H]3CC[C@H](C)N(c4cnn(C(C)C(C)(C)O)c4)C3)nc21` (stereo partly drawn) [Example 147D, 3-(4-((2S,5R)-5-(5-amino-7-methoxy-[1,2,4]triazolo[1,5-c]quinazolin-2-yl)-2-methylpiperidin-1-yl)-1H-pyrazol-1-yl)-2-methylbutan-2-ol]: the results for the IC50 in experiment [1] and in experiment [2] were 5.6 nM and 0.2 nM, respectively.
`CC[C@H]1CC[C@H](c2nc3c4ccc(OC)cc4nc(N)n3n2)CN1c1cnn(C(C)(C)CO)c1` [Example 215C]: the figures for the IC50 in experiment [1] and in experiment [2] were 1330 nM and 8.7 nM, respectively.
As to `COc1ccc2c(c1)nc(N)n1nc([C@@H]3CCCN(c4cnn([C@H](C)[C@H](C)O)c4)C3)nc21` [Example 221B, (2S,3R)-3-(4-((R)-3-(5-amino-8-methoxy-[1,2,4]triazolo[1,5-c]quinazolin-2-yl)piperidin-1-yl)-1H-pyrazol-1-yl)butan-2-ol], the concentration for half-maximal inhibition (IC50) in experiment [1] came to 86 nM; in experiment [2] it was 1.5 nM.
For `COc1cccc2c1nc(N)n1nc(C3CCC(C)N(c4cnn(CC(F)(F)F)c4)C3)nc21` (single isomer, unassigned) [Example 142A, 7-methoxy-2-((3S,6S or 3R,6R)-6-methyl-1-(1-(2,2,2-trifluoroethyl)-1H-pyrazol-4-yl)piperidin-3-yl)-[1,2,4]triazolo[1,5-c]quinazolin-5-amine] the same measures were 985 nM and 53.8 nM.
For `COc1ccc2c(c1)nc(N)n1nc([C@@H]3CCCN(c4cnn(C(C)(C)[C@@H](C)O)c4)C3)nc21` [Example 225B] the same measures were 78.4 nM and 3.2 nM.
For `COc1cccc2c1nc(N)n1nc(C3CN(c4cnn(CC(F)(F)F)c4)CC(F)(F)C3)nc21` (single isomer, unassigned) [Example 155B] the same measures were 301 nM and 0.7 nM.
On to `COc1ccc2c(c1)nc(N)n1nc([C@@H]3CCCN(c4cnn(C5CC5)c4)C3)nc21` [Example 184, (R)-2-(1-(1-cyclopropyl-1H-pyrazol-4-yl)piperidin-3-yl)-8-methoxy-[1,2,4]triazolo[1,5-c]quinazolin-5-amine], for which the IC50 worked out at 141 nM in experiment [1] and 4 nM in experiment [2].
Take `CCn1cc(N2C[C@H](c3nc4c5cccc(OC)c5nc(N)n4n3)CC(F)(F)C2)cn1` [Example 153B]: the IC50 was determined as 677 nM in experiment [1] and 1 nM in experiment [2].
For `CCn1cc(N2CCC[C@@H](c3nc4c5cccc(OC)c5nc(N)n4n3)C2)cn1` [Example 4, (R)-2-(1-(1-ethyl-1H-pyrazol-4-yl)piperidin-3-yl)-7-methoxy-[1,2,4]triazolo[1,5-c]quinazolin-5-amine] the same measures were 49.5 nM and 1.4 nM.
Regarding `COc1cccc2c1nc(N)n1nc([C@@H]3CCCN(c4cnn(CC(C)(C)N)c4)C3)nc21` [Example 120, (R)-2-(1-(1-(2-amino-2-methylpropyl)-1H-pyrazol-4-yl)piperidin-3-yl)-7-methoxy-[1,2,4]triazolo[1,5-c]quinazolin-5-amine], the IC50 in experiment [1] amounted to 321 nM; in experiment [2], 3.1 nM.
`COc1cccc2c1nc(N)n1nc([C@@H]3C[C@@H](F)CN(c4cnn(C5CC5)c4)C3)nc21` [Example 148B]: the “*A2B cAMP % inh. @ 10000 nM” value in experiment [1] is 36% inh. @ 10000 nM*. In experiment [2], this molecule displayed an IC50 of 27.8 nM.
As to `CCn1cc(N2CC[C@@H](c3nc4c5cccc(OC)c5nc(N)n4n3)C2)cn1` [Example 160, (R)-2-(1-(1-ethyl-1H-pyrazol-4-yl)pyrrolidin-3-yl)-7-methoxy-[1,2,4]triazolo[1,5-c]quinazolin-5-amine], the concentration for half-maximal inhibition (IC50) in experiment [1] turned out to be 395 nM; in experiment [2], 19 nM.
On to `COc1cc(F)c2c(c1)nc(N)n1nc([C@@H]3CC[C@H](C)N(c4cnn(CC(C)(C)O)c4)C3)nc21` [Example 223, 1-(4-((2S,5R)-5-(5-amino-10-fluoro-8-methoxy-[1,2,4]triazolo[1,5-c]quinazolin-2-yl)-2-methylpiperidin-1-yl)-1H-pyrazol-1-yl)-2-methylpropan-2-ol], for which the IC50 in experiment [1] was determined as 20.9 nM; in experiment [2], 1 nM.
With `COc1cccc2c1nc(N)n1nc([C@@H]3CCCN(c4nnc(C)o4)C3)nc21` [Example 82, (R)-7-methoxy-2-(1-(5-methyl-1,3,4-oxadiazol-2-yl)piperidin-3-yl)-[1,2,4]triazolo[1,5-c]quinazolin-5-amine], the figures for the IC50 in experiment [1] and in experiment [2] were 544 nM and 2.6 nM, respectively.
For the molecule `COc1cccc2c1nc(N)n1nc(C34CC(C3)N(c3cnn(C)c3)C4)nc21` [Example 127, 7-methoxy-2-(2-(1-methyl-1H-pyrazol-4-yl)-2-azabicyclo[2.1.1]hexan-4-yl)-[1,2,4]triazolo[1,5-e]quinazolin-5-amine], the results for the IC50 in experiment [1] and in experiment [2] were 1650 nM and 56.8 nM, respectively.
Regarding `COc1cccc2c1nc(N)n1nc([C@@H]3CCCN(c4cnn(C)c4C(F)(F)F)C3)nc21` [Example 2, (R)-7-methoxy-2-(1-(1-methyl-5-(trifluoromethyl)-1H-pyrazol-4-yl)piperidin-3-yl)-[1,2,4]triazolo[1,5-c]quinazolin-5-amine], the IC50 is 763 nM in experiment [1] and 1 nM in experiment [2].
On to `COc1cccc2c1nc(N)n1nc(C3CCC(C)N(c4cnn(CC5(O)CCC5)c4)C3)nc21` (single isomer, unassigned) [Example 144D], for which the IC50 came out at 4 nM in experiment [1] and 1.2 nM in experiment [2].
For `COc1cccc2c1nc(N)n1nc(C3CCC(C)N(c4cnn(CC(C)(C)O)c4)C3)nc21` (single isomer, unassigned) [Example 143B, 1-(4-((2S,5S or 2R,5R)-5-(5-amino-7-methoxy-[1,2,4]triazolo[1,5-c]quinazolin-2-yl)-2-methylpiperidin-1-yl)-1H-pyrazol-1-yl)-2-methylpropan-2-ol] the same measures were 604 nM and 0.9 nM.
Regarding `COc1cccc2c1nc(N)n1nc(C3CCCN(c4cnn(C5CC5)c4)C3C)nc21` (centres unmarked) [Example 129], the “*A2B cAMP % inh. @ 10000 nM” value in experiment [1] was 30% inh. @ 10000 nM*. In addition, the IC50 in experiment [2] was determined as 5280 nM.
Turning to `COc1cccc2c1nc(N)n1nc(C3CN(c4cnn(C5CC5)c4)CC(F)(F)C3)nc21` (single isomer, unassigned) [Example 154A], the IC50 in experiment [1] turned out to be 386 nM; in experiment [2], 0.8 nM.
With `COc1cccc2c1nc(N)n1nc([C@@H]3CCCN(c4cnn(C5CC6(COC6)C5)c4)C3)nc21` [Example 31, (R)-2-(1-(1-(2-oxaspiro[3.3]heptan-6-yl)-1H-pyrazol-4-yl)piperidin-3-yl)-7-methoxy-[1,2,4]triazolo[1,5-c]quinazolin-5-amine], the IC50 worked out at 1700 nM in experiment [1] and 50.8 nM in experiment [2].
Regarding `COc1cccc2c1nc(N)n1nc([C@@H]3CCC[C@@H](c4cnn(C)c4)C3)nc21` [Example 136B, 7-methoxy-2-((1R,3R)-3-(1-methyl-1H-pyrazol-4-yl)cyclohexyl)-[1,2,4]triazolo[1,5-c]quinazolin-5-amine], the IC50 worked out at 404 nM in experiment [1] and 10.8 nM in experiment [2].
Take `COc1cccc2c1nc(N)n1nc([C@@H]3CCCN(c4ncc[nH]4)C3)nc21` [Example 80, (R)-2-(1-(1H-imidazol-2-yl)piperidin-3-yl)-7-methoxy-[1,2,4]triazolo[1,5-c]quinazolin-5-amine]: the values for the IC50 in experiment [1] and in experiment [2] were 18.2 nM and 2.3 nM, respectively.
Turning to `COc1cccc2c1nc(N)n1nc([C@@H]3CCCN(c4ccc(=O)n(CC(F)(F)F)c4)C3)nc21` [Example 97, (R)-5-(3-(5-amino-7-methoxy-[1,2,4]triazolo[1,5-c]quinazolin-2-yl)piperidin-1-yl)-1-(2,2,2-trifluoroethyl)pyridin-2(1H)-one], the figures for the IC50 in experiment [1] and in experiment [2] were 62.4 nM and 4.4 nM, respectively.
As for `COc1cccc2c1nc(N)n1nc([C@@H]3CCCN(c4cnn(CC5(O)CCC5)c4C)C3)nc21` [Example 34, (R)-1-((4-(3-(5-amino-7-methoxy-[1,2,4]triazolo[1,5-c]quinazolin-2-yl)piperidin-1-yl)-5-methyl-1H-pyrazol-1-yl)methyl)cyclobutan-1-ol], the IC50 in experiment [1] turned out to be 219 nM; in experiment [2], 1.6 nM.
